Reference: ChEMBL document CHEMBL3769345, “Rapid Synthesis of Boc-2',6'-dimethyl-l-tyrosine and Derivatives and Incorporation into Opioid Peptidomimetics” (ACS Med Chem Lett, 2015)
Active and inactive are the calls of the source. No cut-off for these calls is given here.

Tests used:
Mu-type opioid receptor [1] = target: T1, Mu-type opioid receptor (Rattus norvegicus, UniProt P33535); test: Displacement of [3H]diprenorphine from rat MOR expressed in rat C6 cells after 1 hr by liquid scintillation counting method; format: cell-based
[2] = target: T2, Delta-type opioid receptor (Rattus norvegicus, UniProt P33533); test: Displacement of [3H]diprenorphine from rat DOR expressed in rat C6 cells after 1 hr by liquid scintillation counting method; format: cell-based
[3] = target: T3, Kappa-type opioid receptor (Homo sapiens, UniProt P41145); test: Displacement of [3H]diprenorphine from human KOR expressed in CHO cells after 1 hr by liquid scintillation counting method; format: cell-based
Mu-type opioid receptor [4] = target: T1, Mu-type opioid receptor; test: Agonist activity at rat MOR expressed in rat C6 cells after 1 hr by [35S]GTPgammaS binding assay; format: functional, cell-based
[5] = target: T2, Delta-type opioid receptor; test: Agonist activity at rat DOR expressed in rat C6 cells after 1 hr by [35S]GTPgammaS binding assay; format: functional, cell-based
[6] = target: T3, Kappa-type opioid receptor; test: Agonist activity at human KOR expressed in CHO cells after 1 hr by [35S]GTPgammaS binding assay; format: functional, cell-based
[7] = target: Mu-type opioid receptor (Rattus norvegicus) (UniProt P33535); test: Agonist activity at rat MOR expressed in rat C6 cells at 10 uM after 1 hr by [35S]GTPgammaS binding assay relative to DAMGO; format: functional, cell-based
[8] = target: T3, Kappa-type opioid receptor; test: Agonist activity at human KOR expressed in CHO cells at 10 uM after 1 hr by [35S]GTPgammaS binding assay relative to U69,593; format: functional, cell-based
[9] = target: Delta-type opioid receptor (Rattus norvegicus) (UniProt P33533); test: Agonist activity at rat DOR expressed in rat C6 cells at 10 uM after 1 hr by [35S]GTPgammaS binding assay relative to DPDPE; format: functional, cell-based
Chain of Delta-type opioid receptor (Rattus norvegicus) (P33533 whole entry): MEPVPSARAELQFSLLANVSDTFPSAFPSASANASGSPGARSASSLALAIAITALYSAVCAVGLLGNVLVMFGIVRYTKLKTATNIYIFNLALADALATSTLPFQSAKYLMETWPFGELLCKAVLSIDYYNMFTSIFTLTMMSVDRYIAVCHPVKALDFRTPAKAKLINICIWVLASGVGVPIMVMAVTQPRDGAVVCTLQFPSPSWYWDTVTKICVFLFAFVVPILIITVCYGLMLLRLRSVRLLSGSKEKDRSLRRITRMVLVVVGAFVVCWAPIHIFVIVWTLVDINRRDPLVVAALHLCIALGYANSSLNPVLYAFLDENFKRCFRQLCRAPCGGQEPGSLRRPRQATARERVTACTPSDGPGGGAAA

T1 sequence (P33535 whole entry): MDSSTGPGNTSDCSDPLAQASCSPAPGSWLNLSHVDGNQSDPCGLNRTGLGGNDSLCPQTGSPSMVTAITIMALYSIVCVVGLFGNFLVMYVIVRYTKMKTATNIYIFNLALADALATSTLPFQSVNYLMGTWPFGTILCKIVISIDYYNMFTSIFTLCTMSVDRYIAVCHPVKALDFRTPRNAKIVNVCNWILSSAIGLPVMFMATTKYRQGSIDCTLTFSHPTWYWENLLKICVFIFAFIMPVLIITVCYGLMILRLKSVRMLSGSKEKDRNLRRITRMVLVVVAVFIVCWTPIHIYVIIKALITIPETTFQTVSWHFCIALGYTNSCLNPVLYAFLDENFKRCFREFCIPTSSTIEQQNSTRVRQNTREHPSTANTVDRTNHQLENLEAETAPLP
Chain of Mu-type opioid receptor (Rattus norvegicus) (P33535 whole entry): as above
T3 sequence (P41145 whole entry): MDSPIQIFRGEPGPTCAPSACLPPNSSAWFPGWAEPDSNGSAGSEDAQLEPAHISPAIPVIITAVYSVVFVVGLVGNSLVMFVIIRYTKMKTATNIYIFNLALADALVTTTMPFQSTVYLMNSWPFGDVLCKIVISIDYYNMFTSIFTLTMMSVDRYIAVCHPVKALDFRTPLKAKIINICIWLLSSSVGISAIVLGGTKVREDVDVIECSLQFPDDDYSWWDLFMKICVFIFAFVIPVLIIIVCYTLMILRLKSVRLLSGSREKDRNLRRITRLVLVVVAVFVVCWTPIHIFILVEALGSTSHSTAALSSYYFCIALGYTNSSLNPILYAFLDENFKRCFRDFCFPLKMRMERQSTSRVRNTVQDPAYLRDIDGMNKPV
T2 sequence (P33533 whole entry): as the sequence (P33533 whole entry) above

Row | Structure (SMILES) | Ki (Mu-type opioid receptor [1]) | Ki [2] | Ki [3] | EC50 (Mu-type opioid receptor [4]) | EC50 ([5]; c6) | EC50 [6] | max activation [7] | max activation [8] | max activation [9] | EC50 ([5]; read-out: EC50)
1 | Cc1cccc(C)c1C[C@H](N)C(=O)N[C@@H]1CCNc2ccc(Cc3ccccc3)cc21 | 18 nM | 660 nM | 130 nM | 280 nM | Not Active | 4800 nM | 86% | 38% | – | –
2 | N[C@@H](Cc1ccc2cccc(O)c2c1)C(=O)N[C@@H]1CCNc2ccc(Cc3ccccc3)cc21 | 440 nM | 1600 nM | 2500 nM | – | – | – | – | – | – | –
3 | N[C@@H](Cc1c(Cl)cc(O)cc1Cl)C(=O)N[C@@H]1CCNc2ccc(Cc3ccccc3)cc21 | 0.47 nM | 37 nM | 35 nM | 33 nM | Not Active | 1200 nM | 83% | 32% | inactive | –
4 | Cc1cc(C[C@H](N)C(=O)N[C@@H]2CCNc3ccc(Cc4ccccc4)cc32)c(C)cc1O | 6.5 nM | 390 nM | 730 nM | 39 nM | – | 370 nM | 89% | 22% | 53% | 5900 nM
5 | Cc1cc(O)ccc1C[C@H](N)C(=O)N[C@@H]1CCNc2ccc(Cc3ccccc3)cc21 | 1.7 nM | 42 nM | 96 nM | 44 nM | Not Active | 2400 nM | 69% | 41% | – | –
